These results are taken from paper PMC11978679, “Pyrazolyl amide-chalcones conjugates: Synthesis and antikinetoplastid activity” (Naunyn-Schmiedeberg's Archives of Pharmacology, 2024).

By IC50 is commonly meant the concentration needed to halve the response being measured. The melting point is the temperature of the solid-liquid transition. As usually defined, the CC50 is the concentration giving 50% cytotoxicity.

In data set [1] the test system is Trypanosoma cruzi (intracellular amastigotes). The data set is described as follows: In vitro anti-parasitic assay, T. cruzi (β-galactosidase/CPRG readout). The conditions noted are these: TULAHUEN, MRC-5 SV2, read-out: IC50 T. cruzi.
Data set [2] has as its system human lung fibroblasts (MRC-5). As to the kind of experiment: In vitro cytotoxicity assay, MRC-5SV2 cells (resazurin). It is filed as cell-based. The note with it: for IC50: Homo sapiens, MRC5, 72 h, cytotoxicity, lung fibroblast, 3 days. The method, then: (§1) Briefly, 1.5 × 10^5 cells/mL cells were cultured with compound dilutions at 37 °C and with 5% CO2. Cell growth was compared to untreated-control wells (100% cell growth) and medium-control wells (0% cell growth). After 3 days incubation, cell viability was assessed fluorometrically after addition of 50 μL resazurin per well. […] The results were expressed as % reduction in cell growth/viability compared to control wells and an IC50 value was determined.
For orientation: Resazurin is reduced to fluorescent resorufin, in cell work by metabolically active cells.

Data set [3] relates to T. cruzi, T. b. brucei, T. b. rhodesiense and L. infantum. The data set is described as follows: Antikinetoplastid activity, whole panel, verdict in words. The note with it: compounds lacking the chalcone moiety.
The test system of data set [4] is Trypanosoma brucei brucei (blood stream trypomastigotes). The data set is described as follows: Drug susceptibility resazurin assay, T. b. brucei. The conditions noted are these: 72 h, read-out: IC50 T. b. brucei.
For data set [5], the system named is Trypanosoma brucei rhodesiense (blood stream trypomastigotes). The data set is described as follows: Drug susceptibility resazurin assay, T. b. rhodesiense. The note with it: 72 h, read-out: IC50 T. b. rhodesiense.
Data set [6] concerns primary mouse macrophages (PMMs). As to the kind of experiment: In vitro cytotoxicity against primary mouse macrophages. The conditions noted are these: for IC50: Macrophage, cytotoxicity, primary mouse macrophages. The data set is classed as cell-based.
The test system of data set [7] is Leishmania infantum (intracellular amastigotes). The data set is described as follows: In vitro anti-Leishmania assay in primary peritoneal mouse macrophages (Giemsa, microscopy). The conditions noted are these: Macrophage, 120 h, read-out: IC50 L. infantum.
A short description of data set [8]: In vitro cytotoxicity assay, MRC-5SV2 cells (resazurin). The data set is classed as cell-based, human. The note with it: human, MRC-5SV2 cells (human lung fibroblasts); cytotoxicity; read-out: CC50 against MRC-5. The method, then: as §1
Data set [9] deals with promastigotes of L. aethiopica. The note with it: ref Bekhit et al. [2014]; cited from earlier work.

As to `O=C(Cn1ccnc1[N+](=O)[O-])NCc1ccccc1` [Benznidazole, reference compound], the IC50 in [1] was 1.35 µM.

Turning to `O=C(O)c1cn(-c2ccccc2)nc1-c1ccccc1` [Compound 5, 1,3-diphenyl-1H-pyrazole-4-carboxylic acid], the IC50 in [2] was 33 µM; in data set [4], above 64 µM; in [1] it was above 64 µM; in data set [5], above 64 µM; in [6], above 64 µM; in data set [7], above 64 µM. The “antikinetoplastid activity, in words” value in data set [3] is “inactive”.

Take `CC(=O)c1ccc(NC(=O)c2cn(-c3ccccc3)nc2-c2ccccc2)cc1` [Compound 7, N-(4-acetylphenyl)-1,3-diphenyl-1H-pyrazole-4-carboxamide]: the melting point was 149 to 150 °C. This compound came in with an IC50 in data set [2] of 14.4 µM. The “antikinetoplastid activity, in words” value in [3] is “inactive”. In data set [4], the concentration for half-maximal inhibition (IC50) is above 64 µM. In addition, the IC50 in data set [1] is above 64 µM. In [5], the IC50 is above 64 µM. In data set [6], the IC50 is above 64 µM. Also, the IC50 in data set [7] is above 64 µM.

On to `O=C(C=Cc1ccccc1)c1ccc(NC(=O)c2cn(-c3ccccc3)nc2-c2ccccc2)cc1` [Compound 9a, N-(4-cinnamoylphenyl)-1,3-diphenyl-1H-pyrazole-4-carboxamide], for which the melting point was in the range of 160 to 161 °C. In data set [2], the “cytotoxicity against human lung fibroblasts (MRC-5), in words” value (shortened to “cytotoxicity … (MRC-5), in words”) was “non-cytotoxic” and the half-maximal inhibitory concentration (IC50) is above 64 µM. Also, the half-inhibitory concentration (IC50) in data set [4] is 0.77 ± 0.27 µM. Moreover, in [1], the IC50 is above 53.2 µM. In data set [5], the IC50 was 0.96 ± 0.49 µM. In [6], the “cytotoxicity against primary mouse macrophages (PMMs), in words” value (“cytotoxicity … (PMMs), in words” below) is reported as “non-cytotoxic” and it took 32 µM to reach half-maximal inhibition (IC50). The IC50 in data set [7] amounted to 7.16 ± 1.88 µM.

`Cc1ccccc1/C=C/C(=O)c1ccc(NC(=O)c2cn(-c3ccccc3)nc2-c2ccccc2)cc1` [Compound 9b, (E)-1,3-diphenyl-N-(4-(3-(o-tolyl)acryloyl)phenyl)-1H-pyrazole-4-carboxamide]: the “cytotoxicity … (MRC-5), in words” value in data set [2] was “non-cytotoxic”. The IC50 in data set [2] was above 64 µM; in [4], 0.51 ± 0.06 µM; in [1] it was above 64 µM; in [5], 0.54 ± 0.24 µM; in data set [6], above 36 µM; in [7] it was 18.7 ± 9.18 µM. Further, in data set [6], the “cytotoxicity … (PMMs), in words” value is “non-cytotoxic”.

With `COc1cccc(/C=C/C(=O)c2ccc(NC(=O)c3cn(-c4ccccc4)nc3-c3ccccc3)cc2)c1` [Compound 9c, (E)-N-(4-(3-(3-methoxyphenyl)acryloyl)phenyl)-1,3-diphenyl-1H-pyrazole-4-carboxamide], the CC50 at 3 days in data set [8] is 10.7 µM. In data set [2], this compound displayed an IC50 of 10.7 µM.

The compound `COc1ccc(/C=C/C(=O)c2ccc(NC(=O)c3cn(-c4ccccc4)nc3-c3ccccc3)cc2)cc1` [Compound 9d, (E)-N-(4-(3-(4-methoxyphenyl)acryloyl)phenyl)-1,3-diphenyl-1H-pyrazole-4-carboxamide] gave a melting point of 174 to 175 °C. In [2], this compound returned an IC50 above 64 µM. Besides, in [4], the IC50 was 1.64 ± 0.12 µM. Further, the IC50 in data set [1] is above 64 µM. For the same compound, in data set [5], the IC50 came out at 0.69 ± 0.31 µM. This compound also came in with a 50% inhibitory concentration (IC50) in data set [6] above 64 µM. Also, the IC50 in [7] was determined as 31.8 ± 19.1 µM.

As for `O=C(/C=C/c1ccc(Br)cc1)c1ccc(NC(=O)c2cn(-c3ccccc3)nc2-c2ccccc2)cc1` [Compound 9e, (E)-N-(4-(3-(4-bromophenyl)acryloyl)phenyl)-1,3-diphenyl-1H-pyrazole-4-carboxamide], the half-maximal inhibitory concentration (IC50) in data set [2] is 34.9 µM; in data set [4], 1.13 ± 0.63 µM; in data set [1], above 64 µM; in data set [5] it was 1.37 ± 0.02 µM; in [6], above 64 µM; in data set [7], above 46.8 µM.

Take `O=C(/C=C/c1ccccc1Cl)c1ccc(NC(=O)c2cn(-c3ccccc3)nc2-c2ccccc2)cc1` [Compound 9f, (E)-N-(4-(3-(2-chlorophenyl)acryloyl)phenyl)-1,3-diphenyl-1H-pyrazole-4-carboxamide]: the IC50 in data set [2] was above 64 µM; in data set [4], 0.6 ± 0.33 µM; in [1] it was 13.4 ± 4.95 µM; in data set [5], 0.81 ± 0.09 µM; in [6] it was above 64 µM; in data set [7], 18.7 ± 9.18 µM.

Consider `O=C(/C=C/c1cccc(Cl)c1)c1ccc(NC(=O)c2cn(-c3ccccc3)nc2-c2ccccc2)cc1` [Compound 9g, (E)-N-(4-(3-(3-chlorophenyl)acryloyl)phenyl)-1,3-diphenyl-1H-pyrazole-4-carboxamide], for which the CC50 at 3 days in data set [8] stood at 6.2 µM. This compound displayed a half-inhibitory concentration (IC50) in data set [2] of 6.2 µM.

Turning to `O=C(/C=C/c1cccc(F)c1)c1ccc(NC(=O)c2cn(-c3ccccc3)nc2-c2ccccc2)cc1` [Compound 9h, (E)-N-(4-(3-(3-fluorophenyl)acryloyl)phenyl)-1,3-diphenyl-1H-pyrazole-4-carboxamide], the half-inhibitory concentration (IC50) in [2] is 24.8 µM; in data set [4], 6.36 ± 0.11 µM; in [1] it was above 64 µM; in data set [5], 1.56 ± 0.11 µM; in data set [6] it was above 48 µM; in data set [7] it was 21 ± 11 µM.

With `O=C(/C=C/c1ccc(F)cc1)c1ccc(NC(=O)c2cn(-c3ccccc3)nc2-c2ccccc2)cc1` [Compound 9i, (E)-N-(4-(3-(4-fluorophenyl)acryloyl)phenyl)-1,3-diphenyl-1H-pyrazole-4-carboxamide], the IC50 in [2] was above 64 µM; in [4] it was 0.78 ± 0.26 µM; in data set [1], above 54.2 µM; in data set [5], 1.12 ± 0.74 µM; in data set [6] it was above 64 µM; in data set [7], above 37.4 µM.

Compound `O=C(/C=C/c1ccc(Cl)c(Cl)c1)c1ccc(NC(=O)c2cn(-c3ccccc3)nc2-c2ccccc2)cc1` [Compound 9j, (E)-N-(4-(3-(3,4-dichlorophenyl)acryloyl)phenyl)-1,3-diphenyl-1H-pyrazole-4-carboxamide] yielded a melting point of 200 to 201 °C. The compound further displayed a 50% inhibitory concentration (IC50) in data set [2] of 22.3 µM. Further, the half-inhibitory concentration (IC50) in [4] was 4.63 µM. The IC50 in data set [1] was 46.1 µM. Also, the 50% inhibitory concentration (IC50) in data set [5] was found to be 4.52 µM. This compound also came in with a concentration for half-maximal inhibition (IC50) in [6] above 64 µM. Besides, in data set [7], the IC50 is above 64 µM.

`O=C(/C=C/c1cccc([N+](=O)[O-])c1)c1ccc(NC(=O)c2cn(-c3ccccc3)nc2-c2ccccc2)cc1` [Compound 9k, (E)-N-(4-(3-(3-nitrophenyl)acryloyl)phenyl)-1,3-diphenyl-1H-pyrazole-4-carboxamide]: the IC50 in [2] is 19.4 µM; in data set [4], 6.69 µM; in [1], above 64 µM; in data set [5], 8.22 µM; in [6] it was above 64 µM; in [7], 45.2 µM.

As to `O=C(/C=C/c1cccs1)c1ccc(NC(=O)c2cn(-c3ccccc3)nc2-c2ccccc2)cc1` [Compound 9l, (E)-1,3-diphenyl-N-(4-(3-(thiophen-2-yl)acryloyl)phenyl)-1H-pyrazole-4-carboxamide], the melting point lay in the range of 210 to 211 °C. For the same compound, in [2], the IC50 turned out to be 39.2 µM. For the same compound, the IC50 in data set [4] amounted to 13.2 ± 19 µM. In addition, in data set [1], the IC50 was above 64 µM. In addition, the 50% inhibitory concentration (IC50) in [5] was found to be 2.7 ± 0.03 µM. This compound also returned an IC50 in data set [6] above 64 µM. Also, in data set [7], the IC50 was above 53.5 µM.

Regarding `O=C(/C=C/c1cccnc1)c1ccc(NC(=O)c2cn(-c3ccccc3)nc2-c2ccccc2)cc1` [Compound 9m, (E)-1,3-diphenyl-N-(4-(3-(pyridin-3-yl)acryloyl)phenyl)-1H-pyrazole-4-carboxamide], the melting point lay within 198 to 199 °C. For the same compound, in [8], the CC50 at 3 days stood at 0.26 µM. For the same compound, in data set [2], the midpoint of inhibition, the IC50, lay at 0.26 µM.

`O=C(/C=C/c1ccc2c(c1)OCO2)c1ccc(NC(=O)c2cn(-c3ccccc3)nc2-c2ccccc2)cc1` [Compound 9n, (E)-N-(4-(3-(benzo[d][1,3]dioxol-5-yl)acryloyl)phenyl)-1,3-diphenyl-1H-pyrazole-4-carboxamide]: the melting point lay within 182 to 183 °C. Moreover, in [2], the “cytotoxicity … (MRC-5), in words” value is recorded as “non-cytotoxic” and the half-inhibitory concentration (IC50) is 64 µM. The IC50 in data set [4] was 3.44 ± 2.88 µM. In addition, the IC50 in data set [1] is above 64 µM. Moreover, the IC50 in data set [5] came to 0.46 ± 0.07 µM. In addition, in [6], the “cytotoxicity … (PMMs), in words” value was “non-cytotoxic” and the IC50 is above 64 µM. In addition, the IC50 in [7] was above 57.4 µM.

Regarding `Cc1ccc(-n2cc(/C=C/C(=O)c3cccs3)c(-c3ccccc3)n2)cc1` [II], the “EC50 against promastigotes of L. aethiopica” value in data set [9] was 0.079 µg/mL.

For `CCCCCCCCCCCCCCCCOP(=O)([O-])OCC[N+](C)(C)C` [Miltefosine, reference compound], the IC50 in [7] was 7.13 µM.

As to `Cc1ccc(C(=O)Nc2ccc(S(=O)(=O)O)c3cc(S(=O)(=O)O)cc(S(=O)(=O)O)c23)cc1NC(=O)c1cccc(NC(=O)Nc2cccc(C(=O)Nc3cc(C(=O)Nc4ccc(S(=O)(=O)O)c5cc(S(=O)(=O)O)cc(S(=O)(=O)O)c45)ccc3C)c2)c1` [Suramine, reference compound], the figures for the IC50 in [4] and in data set [5] were 0.04 µM and 0.05 µM, respectively.
